For ten molecules, GI50 and TGI results are on record in PubChem BioAssay (NCI).

The structures appear in SMILES notation.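 Interpolation was linear, between the two tested concentrations surrounding the appropriate level; five concentrations were tested over 48 hours in 96-well plates. Here, GI50 denotes the concentration required for 50% inhibition of growth. TGI: concentration producing complete growth inhibition.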

Some test systems named below: SK-OV-3 ovarian; OVCAR-8 ovarian; UO-31 renal; MDA-MB-435; HL-60(TB) leukemia; NCI/ADR-RES ovarian; PC-3 prostate; BT-549 breast; OVCAR-3 ovarian; EKVX NSCLC.
Assay in all cases: NCI tumour cell line growth inhibition, 48 h

As for `OCc1ccc(N(Cc2ccc(F)cc2)CC2CCC2)cc1Cl`, the GI50 is 14.8 µM in the test with SK-OV-3 ovarian; 14.7 µM in the test on OVCAR-8 ovarian; 8.3 µM in the test with UO-31 renal; 15.4 µM in the test on MDA-MB-435; 12.1 µM in the test with HL-60(TB) leukemia; 12.8 µM with NCI/ADR-RES ovarian. The GI50 with PC-3 prostate is 11.8 µM; in the test with BT-549 breast, 17.5 µM; in the test on OVCAR-3 ovarian it was 5.28 µM. Besides, the TGI turned out to be 27.9 µM in the test on SK-OV-3 ovarian; 32.4 µM in the test with OVCAR-8 ovarian; 21 µM in the test with UO-31 renal; 30 µM with MDA-MB-435; 28.9 µM in the test on HL-60(TB) leukemia; 28 µM in the test with NCI/ADR-RES ovarian. Also, the TGI with PC-3 prostate is 24.8 µM; in the test on BT-549 breast, 32.3 µM; in the test on OVCAR-3 ovarian it was 17.5 µM.

For the molecule `Cc1cc(N)cc(C)c1-c1c(Br)cc(N)cc1Br`, the GI50 was 5.65 µM with EKVX NSCLC; 3.62 µM in the test on SK-OV-3 ovarian; 4.41 µM in the test with OVCAR-8 ovarian; 9.11 µM in the test on UO-31 renal; 1.78 µM in the test on MDA-MB-435; 2.23 µM in the test with NCI/ADR-RES ovarian. Further, the GI50 in the test with PC-3 prostate was 4.17 µM; with BT-549 breast it was 7.51 µM; with OVCAR-3 ovarian, 2.63 µM. Besides, the TGI in the test with EKVX NSCLC was more than 100 µM; in the test with SK-OV-3 ovarian it was 12.2 µM; with OVCAR-8 ovarian, 28.6 µM; with UO-31 renal it was 46 µM; in the test on MDA-MB-435, 11.2 µM; in the test on NCI/ADR-RES ovarian, 5.57 µM. In addition, the TGI in the test on PC-3 prostate was found to be 69.1 µM; in the test with BT-549 breast, 30.4 µM; in the test with OVCAR-3 ovarian it was 6.3 µM.

Consider `N#Cc1c(N)c(C#N)c2c(c1-c1ccc(Cl)cc1)COc1ccc(F)cc1-2`, for which the GI50 in the test on EKVX NSCLC was 12.4 µM; in the test on SK-OV-3 ovarian, more than 50 µM; in the test with OVCAR-8 ovarian it was more than 50 µM; in the test on UO-31 renal, 10.9 µM; in the test with MDA-MB-435, more than 50 µM; in the test on HL-60(TB) leukemia, more than 50 µM. The GI50 with NCI/ADR-RES ovarian was 30.6 µM; in the test with PC-3 prostate, more than 50 µM; in the test on OVCAR-3 ovarian it was 16.2 µM. The TGI in the test on EKVX NSCLC, with SK-OV-3 ovarian, in the test with OVCAR-8 ovarian, with UO-31 renal, with MDA-MB-435 and in the test with HL-60(TB) leukemia was more than 50 µM each time. The TGI in the test with NCI/ADR-RES ovarian, in the test on PC-3 prostate and with OVCAR-3 ovarian was more than 50 µM in each case.

As to `O=C1N=C(Nc2nc(-c3csc(NC4=NC(=O)/C(=C\c5ccc(Cl)cc5)S4)n3)cs2)S/C1=C/c1ccc(Cl)cc1`, the GI50 with EKVX NSCLC is 12.3 µM; with OVCAR-8 ovarian, 8.99 µM; in the test with UO-31 renal it was 17.6 µM; in the test with MDA-MB-435, 12.8 µM; with HL-60(TB) leukemia, 12.6 µM; in the test on NCI/ADR-RES ovarian, 18.1 µM. Further, the GI50 was 8.78 µM with PC-3 prostate and 10.5 µM in the test with OVCAR-3 ovarian. Further, the TGI in the test with EKVX NSCLC was more than 50 µM; in the test with OVCAR-8 ovarian, 30.2 µM; in the test on UO-31 renal it was more than 50 µM; with MDA-MB-435, more than 50 µM; in the test on HL-60(TB) leukemia, 33.8 µM; in the test on NCI/ADR-RES ovarian, more than 50 µM. Moreover, the values for the TGI in the test with PC-3 prostate and in the test on OVCAR-3 ovarian were 49 µM and 37.3 µM, respectively.

For `O=C1NC(=O)C(c2c[nH]c3ccccc23)=C1c1ccccc1`, the GI50 with SK-OV-3 ovarian was more than 25 µM; in the test on OVCAR-8 ovarian it was more than 25 µM; in the test on UO-31 renal, more than 24 µM; in the test on MDA-MB-435, more than 25 µM; with HL-60(TB) leukemia, more than 25 µM; with NCI/ADR-RES ovarian it was more than 25 µM. Also, the GI50 with PC-3 prostate, in the test on BT-549 breast and in the test on OVCAR-3 ovarian was more than 25 µM in each case. The TGI in the test with SK-OV-3 ovarian, with OVCAR-8 ovarian, in the test with UO-31 renal, in the test with MDA-MB-435, in the test on HL-60(TB) leukemia and with NCI/ADR-RES ovarian was more than 25 µM in each case. Moreover, the TGI in the test on PC-3 prostate, with BT-549 breast and in the test on OVCAR-3 ovarian was more than 25 µM each time.

For `Cc1c(O)c(Br)c(C)c(O)c1Br` (tested in a mixture with another compound), the TGI in the test with SK-OV-3 ovarian was 29.4 µM; in the test on UO-31 renal, 3.28 µM; with MDA-MB-435, 3.44 µM; in the test on HL-60(TB) leukemia it was 3.22 µM; in the test on NCI/ADR-RES ovarian it was more than 100 µM; in the test with PC-3 prostate, 4.23 µM. Besides, the TGI in the test on BT-549 breast amounted to 9.7 µM.

As for `O=C(/C=C/c1ccccc1)OCC1=C[C@@H](O)[C@@H]2C=CO[C@@H](OC3OC(CO)C(O)C(O)C3O)[C@H]12` (stereo partly drawn), the TGI in the test on EKVX NSCLC, in the test on SK-OV-3 ovarian, in the test with OVCAR-8 ovarian, in the test with UO-31 renal, with MDA-MB-435 and with NCI/ADR-RES ovarian was more than 100 µM in each case. Moreover, the TGI with PC-3 prostate, with BT-549 breast and with OVCAR-3 ovarian was more than 100 µM each time.

`O=C(O)c1cn(C2CC2)c2cc(N3CCN(Cc4ccc5ccccc5c4O)CC3)c(F)cc2c1=O`: the GI50 in the test with EKVX NSCLC was more than 100 µM; in the test on SK-OV-3 ovarian it was 3.68 µM; with OVCAR-8 ovarian it was 3.74 µM; with MDA-MB-435 it was 3.12 µM; in the test with HL-60(TB) leukemia, more than 100 µM. For the same molecule, the TGI in the test with EKVX NSCLC, in the test on SK-OV-3 ovarian, in the test with OVCAR-8 ovarian, with MDA-MB-435 and with HL-60(TB) leukemia was more than 100 µM each time.

Turning to `Cn1cc(C2=C(c3c(S(C)=O)n(C)c4ccccc34)C(=O)NC2=O)c2ccccc21` (stereo not drawn), the GI50 with SK-OV-3 ovarian was 7.87 µM; in the test with OVCAR-8 ovarian, 12.3 µM; in the test with UO-31 renal, 3.89 µM; in the test with MDA-MB-435 it was 2.68 µM; in the test with HL-60(TB) leukemia it was 5.39 µM; in the test with NCI/ADR-RES ovarian it was 9.19 µM. Also, the values for the GI50 in the test with PC-3 prostate, in the test on BT-549 breast and with OVCAR-3 ovarian were 8.19 µM, 4.88 µM and 6.31 µM, respectively. The TGI with SK-OV-3 ovarian was more than 25 µM; with OVCAR-8 ovarian, more than 25 µM; in the test on UO-31 renal, more than 25 µM; in the test with MDA-MB-435, 9.14 µM; in the test with HL-60(TB) leukemia, 17.7 µM; in the test with NCI/ADR-RES ovarian, more than 25 µM. For the same molecule, the TGI in the test with PC-3 prostate is more than 25 µM; in the test with BT-549 breast, more than 25 µM; in the test with OVCAR-3 ovarian, 17.5 µM.

Turning to `c1ccc2c(c1)N=C(c1ccc3ccccc3c1)CC(c1cccc3ccccc13)S2` (stereo not drawn), the TGI with EKVX NSCLC is more than 100 µM; with SK-OV-3 ovarian, more than 100 µM; with OVCAR-8 ovarian it was more than 100 µM; in the test on UO-31 renal, more than 100 µM; with HL-60(TB) leukemia it was 47.1 µM; in the test on OVCAR-3 ovarian, more than 100 µM.
